Measurements reported in PMC11352108, “Anti-Biofilm and Anti-Inflammatory Properties of the Truncated Analogs of the Scorpion Venom-Derived Peptide IsCT against Pseudomonas aeruginosa” (Antibiotics, 2024).
Where no end group is shown, it is not given here.

Legend:
[1] = system: sheep red blood cells; assay: Hemolytic assay; format: cell-based
Experimental: A hemolytic assay was carried out according to the previously described method using commercially sourced sheep red blood cells (Professional Nanomed Company Limited, Bangkok, Thailand). One hundred microliters of a 2% sheep red blood cell suspension prepared in phosphate-buffered saline (PBS) pH 7.4. was incubated for 1 h at 37 °C with 100 μL of the studied peptides (final concentration of 150 µM). After centrifugation at 1000× g for 5 min, 100 μL of supernatant was transferred to new 96-well plates, and the release of hemoglobin was monitored, measuring an optical density (OD) at 405 nm using a BioTek Synergy HT microplate reader. Red blood cells treated with PBS pH 7.4 were used as a negative control, while those treated with 1% Triton X-100 were used as a positive control. The percent hemolysis was calculated as follows:(1) % Hemolysis=OD405 nm of the test peptide−OD405 nm of negative control/OD405 nm of positive control−OD405 nm of negative control × 100

[2] = system: NO production in P. aeruginosa LPS-stimulated RAW 264.7 macrophages; assay: Nitric oxide measurement (Griess reagent); format: cell-based, murine; conditions: 48 h; for Nitrite (µM), Exp.1: replicate Exp.1; for Nitrite (µM), Mean: mean of 2 experiments, LPS alone 24.5278; for Nitrite (µM), Exp.2: replicate Exp.2
Experimental: RAW 264.7 cells (3.5 × 10^5) were stimulated with P. aeruginosa lipopolysaccharide (100 ng/mL; Sigma, St. Louis, MO, USA) in the presence or absence of the IsCT-Δ6-8 peptide (37.5–150 μM, final concentration). After incubation at 37 °C under 5% CO2 for 48 h, supernatants were collected. The levels of nitrite (a stable breakdown of NO) were then determined using the Griess reagent system (Promega, Madison, Wisconsin, USA). The IL-6 levels in culture supernatant were quantified with the BioLegend ELISA MAXTM Deluxe Set according to the manufacturer’s protocols.

[3] = peptide 37.5 µM with LPS 100 ng/mL
[4] = peptide 75 µM with LPS 100 ng/mL
[5] = peptide 150 µM with LPS 100 ng/mL

## ILGKIIKSLF [IsCT-Δ6-8]
[1]; sheep erythrocytes, concentrations as high as 150 μM
  Hemolytic activity (in words): decreased hemolytic activity
[1]; sheep red blood cells, 1 h, 37 °C, peptides 150 μM (Triton X-100 1%), replicate Exp.1
  % Hemolysis, Exp.1: 1.56%
[1]; sheep red blood cells, 1 h, 37 °C, peptides 150 μM (Triton X-100 1%), replicate Exp.2
  % Hemolysis, Exp.2: 0.72%
[1]; sheep red blood cells, 1 h, 37 °C, peptides 150 μM (Triton X-100 1%), replicate Exp.3
  % Hemolysis, Exp.3: 3.45%
[2]; 37.5–150 μM, in particular at 150 μM (p < 0.05 vs LPS-stimulated)
  Effect on LPS-induced nitrite increase (in words): reduced
[2]; peptide 37.5 µM with LPS 100 ng/mL, 37 °C
  Nitrite (µM), Exp.1: 24.3889 µM
[2]; [3]
  Nitrite (µM), Mean: 24.2500 µM
  Nitrite (µM), Exp.2: 24.1111 µM
[2]; [4]
  Nitrite (µM), Mean: 23.5556 µM
  Nitrite (µM), Exp.1: 23.8889 µM
  Nitrite (µM), Exp.2: 23.2222 µM
[2]; [5]
  Nitrite (µM), Mean: 21.0833 µM
  Nitrite (µM), Exp.1: 21.5000 µM
  Nitrite (µM), Exp.2: 20.6667 µM
